Test results as given in patent publication US20210093730A1, “BIOMARKERS FOR ANTIBODY-DRUG CONJUGATE MONOTHERAPY OR COMBINATION THERAPY” (Immunomedics, Inc., priority 2019, published 2021).
Where two headings read alike, the source gives them in different places.

How the values were obtained:
[1] = system: NCI-N87-S120 human gastric cancer cells; details: cells with induced resistance to SN-38; cited from earlier work
[2] = system: MDA-MB-231 human breast cancer cells; details: cells with induced resistance to SN-38; cited from earlier work
NCI-N87-S120 xenografts = details: in combination with IMMU-132; cited from earlier work
urothelial carcinoma [3] = details: docetaxel-alone control arm; cited from earlier work
[4] = system: platinum-resistant urothelial cancer; details: cited from earlier work
[5] = system: advanced colorectal cancer; details: cited from earlier work
TNBC xenografts = details: in combination with sacituzumab govitecan; independent of BRCA1/2 mutation status; cited from earlier work
urothelial carcinoma [6] = details: cited from earlier work
SCLC [7] = details: 28 patients; cited from earlier work
SCLC [8] = details: cited from earlier work
[9] = system: relapsed metastatic ovarian cancer; assay: Therapy of relapsed metastatic ovarian cancer with IMMU-130 plus prexasertib (case, Example 7); details: one patient
[10] = system: metastatic colorectal cancer; details: cited from earlier work
recurrent SCLC = details: cited from earlier work

COc1ccc2c3c([nH]c2c1)[C@H](CC(C)C)N1C(=O)[C@H](CCC(=O)OC(C)(C)C)NC(=O)[C@@H]1C3 [Kol43]
effect on toxicity of SN-38 [1]: restored toxicity of SN-38 | effect on toxicity of SN-38 [2]: restored toxicity of SN-38

CCN(CC)CC(=O)OC1CCN(c2ccc(/C=C(\C#N)c3ccc(OC)c(OC)c3)s2)CC1.CS(=O)(=O)O [YHO-13351]
effect on toxicity of SN-38 [1]: restored toxicity of SN-38 | effect on toxicity of SN-38 [2]: restored toxicity of SN-38 | median survival of mice (NCI-N87-S120 xenografts): increased median survival

CC(=O)O[C@@]12CO[C@@H]1C[C@H](O)[C@@]1(C)C(=O)[C@H](O)C3=C(C)[C@@H](OC(=O)[C@H](O)[C@@H](NC(=O)OC(C)(C)C)c4ccccc4)C[C@@](O)([C@@H](OC(=O)c4ccccc4)[C@H]21)C3(C)C [docetaxel]
progression-free survival (urothelial carcinoma [3]): 10.4 weeks | response rate (urothelial carcinoma [3]): 5%

COc1ccc2c3c([nH]c2c1)[C@H](C=C(C)C)N1C(=O)[C@@H]2CCCN2C(=O)[C@@H]1C3 [fumitremorgin C]
effect on toxicity of SN-38 [1]: restored toxicity of SN-38 | effect on toxicity of SN-38 [2]: restored toxicity of SN-38

CCc1c2c(nc3ccc(OC(=O)N4CCC(N5CCCCC5)CC4)cc13)-c1cc3c(c(=O)n1C2)COC(=O)[C@]3(O)CC [irinotecan]
overall response rate ([4]; 95% confidence interval 1%-17%): 5% | duration of a complete response ([4]; human, in vivo): 33 months | overall survival ([4]; human, in vivo): 5.4 months | response to irinotecan ([5]; TDP1 IVS12+79 G/G genotype): 64% | response to irinotecan ([5]; TDP1 IVS12+79 T/T genotype): 25% | incidence of grade 3/4 neutropenia ([5]; TOP1 IVS4+61 A/A genotype (small sample size)): 50% | incidence of grade 3/4 neutropenia ([5]; TOP1 IVS4+61 G/G genotype): 8%

O=C(c1cc(Cc2n[nH]c(=O)c3ccccc23)ccc1F)N1CCN(C(=O)C2CC2)CC1 [olaparib]
effect on tumor growth (TNBC xenografts): synergistic inhibition of tumor growth

Nc1nc2[nH]cc(CCc3ccc(C(=O)N[C@@H](CCC(=O)O)C(=O)O)cc3)c2c(=O)[nH]1 [pemetrexed]
objective response rate (urothelial carcinoma [6]; 95% confidence interval 1%-9%): 5% | median progression-free survival (urothelial carcinoma [6]; in vivo): 2.4 months

CNCc1ccc(-c2[nH]c3cc(F)cc4c3c2CCNC4=O)cc1 [rucaparib]
effect on tumor growth (TNBC xenografts): synergistic inhibition of tumor growth

Cn1ncnc1[C@H]1c2n[nH]c(=O)c3cc(F)cc(c23)N[C@@H]1c1ccc(F)cc1 [talazoparib]
effect on tumor growth (TNBC xenografts): synergistic inhibition of tumor growth

CC[C@@]1(O)C(=O)OCc2c1cc1n(c2=O)Cc2cc3c(CN(C)C)c(O)ccc3nc2-1 [topotecan]
PR (SCLC [7]): 11% | median survival (SCLC [7]): 5 months | one-year survival (SCLC [7]): 3.5% | objective response rate (SCLC [8]; chemoresistant frontline patients): 5% | objective response rate (SCLC [8]; chemosensitive patients): 17% | grade >=3 anemia (SCLC [8]; in vivo): 24% | grade >=3 neutropenia (SCLC [8]; in vivo): 69% | grade >=3 thrombocytopenia (SCLC [8]; in vivo): 1% | patients who died from this chemotherapy (SCLC [8]; in vivo): approximately 2%

labetuzumab govitecan
response by RECIST criteria ([9]; IMMU-130 10 mg/kg plus prexasertib 105 mg/m^2): partial response | decrease of the sum of the diameters of the index lesions ([9]; IMMU-130 plus prexasertib): 45% | toxicity ([9]; IMMU-130 plus prexasertib): transient grade 2 neutropenia and some initial diarrhea | patients with a reduction in tumor size and plasma CEA levels ([10]; 72 assessable patients): 38% | patients with partial response ([10]; 72 assessable patients): One | patients with stable disease ([10]; 72 assessable patients): 42 patients | median OS ([10]; human, in vivo): 6.9 months | median PFS ([10]; human, in vivo): 3.6 months

nivolumab: anti-PD1 checkpoint inhibitor antibody
disease-control rate (recurrent SCLC; combination with ipilimumab): 32% | response rate (recurrent SCLC; nivolumab alone): 10%
